Laboratory results as given in US5814467A, “APO AI polypeptides, diagnostic methods and systems for quantifying APO AI, and therapeutic methods” (The Scripps Research Institute, priority 1994, dated 1998).
“Also recorded” adds a separate entry of the source.

How the values were obtained:
[1] = test system: monoclonal antibody AI-11; assay: Solid-phase polypeptide direct binding ELISA; parameters: species or system mouse; details: peptide coated at 50 μg/ml; 0.5 μg/ml HRP-conjugated AI-11
Procedure: Apo AI polypeptides AI84-111, AI85-111, AI90-111, AI93-111, AI94-111, AI-94-125, AI96-111, AI99-111, and AI99-114 were tested for immunoreactivity with monoclonal antibody AI-11 in a direct binding ELISA. In the assay, 50 μg/ml of each polypeptide was dissolved in PBS to form a peptide coating solution, of which 150 μl was admixed into the wells of a flexible polyvinyl chloride microtiter plate (Immulon). The wells were then maintained about 16 to 20 at 4° C. to permit the peptide to absorb onto (coat) the walls of the wells. After removing the peptide coating solution by shaking, the wells were washed once with 350 μl of rinsing buffer (PBS containing 1 g/l BSA, 0.5 ml/l Tween 20, and 2 μl/1 aprotinin). Excess protein binding sites were blocked by admixing 200 μl of blocking buffer (PBS containing 3% BSA) into each well, maintaining the wells for 1 hour at 37° C., removing the blocking buffer by shaking, and then washing the wells 3 times as previously described. The plate was then dried for 1 hour at 37° C. followed by addition of 100 μl of PBS containing 0.5 μg/ml horseradish peroxidase conjugated AI-11 antibody to form a solid-liquid phase immunoreaction admixture. The resulting solid-liquid phase immunoreaction admixture was maintained at 20° C. for 1 hour to permit formation of a solid-phase polypeptide-containing immunoreaction product. The wells were then washed 3 times with rinsing buffer to remove unbound antibody.
The amount of immunoreaction product present in the solid phase was then determined by admixing two hundred microliters of OPD substrate into each well to form a developing-reaction admixture. The admixture was maintained for 30 minutes at about 20° C. Subsequently, 50 μl of 4N H2 SO4 were admixed into each well to stop the developing-reaction, and the resulting solution was assayed for absorbance at 450 nanometers using a microtiter plate reader (Dynatech) to detect the amount of formed immunoreaction product.

MAB AI-4 = assay: Competitive RIA, MAB AI-4 binding to Apo AI/HDL-coated wells; parameters: species or system mouse; details: FIG. 3 and FIG. 4
Procedure: The immunoreactivity of MAB AI-4 for native Apo AI/HDL and various synthetic polypeptides was examined by a competitive RIA performed as follows:
(§1) One hundred μl of PBS (0.15M NaCl, 0.01M NaPO4, pH 7.2) containing 10 μg/ml Apo AI/HDL were admixed to the wells of microtiter plates. The plates were maintained for 1 hour at 20° C. on a rotating platform to allow the Apo AI/HDL to adhere to the wells and form solid supports. After aspirating excess liquid from the wells, 200 μl of block solution (3% BSA, 3% NGS in PBS) was admixed to each well, and the wells were maintained for 30 minutes at 20° C. on a rotating platform. Subsequently, the blocking solution was removed by aspiration, and the wells were washed 3 times with SPRIA buffer.
(§2) To each well was then admixed first with 50 μl of PBS containing 3% BSA and various concentrations of competitor antigen, i.e., Apo AI/HDL peptide, and, second, 50 μl of MAB AI-4 in the form of clarified ascites diluted 1:11.25×10^5 in PBS containing 3% BSA to form competitive immunoreaction admixtures. In control wells, either competing antigen or antibody was replaced by PBS containing 3% BSA.
(§3) The immunoreaction admixtures were maintained about 16 hours at 4° C. on a rotating platform to permit formation of solid-phase immunoreaction products. After washing the wells as previously described, 100 μl of ^125 I-labeled goat anti-mouse Ig (^125 I-goat anti-mouse Ig diluted to 2×10^5 trichloracetic acid precipitable disintegrations per minute per 100 μl in PBS containing 3% BSA) were admixed to each well. The labeling immunoreaction admixtures so formed were maintained for 4 hours at 4° C. on a rotating platform. Subsequently, the wells were washed with SPRIA buffer as previously described, and the amount of ^125 I-labeled solid-phase immunoreaction product formed was determined in a gamma counter.
The ability of MAB AI-4 to immunoreact with Apo AI/HDL was compared by using Apo AI/HDL and various synthetic peptides as competitors in the above-described RIA. B/Bo represents corrected CPMs which are plotted against increasing concentrations of competition in μg/ml. B/Bo values are determined in the following formula: [formula] where 0% CPM is a measure of non-specific background based on CPM obtained in RIAs where wells coated with Apo AI/HDL are reacted with the labeled secondary antibody in the absence of primary antibody and competitor, and where 100% CPM is a measure of the maximum non-competed binding of primary antibody to the substrate coated to the wells. The more efficiently a competitor binds to the primary antibody, the lower the B/Bo values.

MAB AI-11 = assay: Competitive RIA, MAB AI-11 binding to Apo AI/HDL-coated wells; parameters: species or system mouse; details: FIG. 5 and FIG. 6
Procedure: as §1, §2, §3
The immunoreactivity of MAB AI-11 for native Apo AI/HDL and various synthetic polypeptides was examined by a competitive RIA as described in Example 10A. […] Other peptides were evaluated for their ability to immunoreact with AI-1l MAE in competitive RIAs described herein.

LCAT = target: T1, LCAT (Homo sapiens, UniProt P04180); details: cited from earlier work
T1 sequence (P04180 25-440): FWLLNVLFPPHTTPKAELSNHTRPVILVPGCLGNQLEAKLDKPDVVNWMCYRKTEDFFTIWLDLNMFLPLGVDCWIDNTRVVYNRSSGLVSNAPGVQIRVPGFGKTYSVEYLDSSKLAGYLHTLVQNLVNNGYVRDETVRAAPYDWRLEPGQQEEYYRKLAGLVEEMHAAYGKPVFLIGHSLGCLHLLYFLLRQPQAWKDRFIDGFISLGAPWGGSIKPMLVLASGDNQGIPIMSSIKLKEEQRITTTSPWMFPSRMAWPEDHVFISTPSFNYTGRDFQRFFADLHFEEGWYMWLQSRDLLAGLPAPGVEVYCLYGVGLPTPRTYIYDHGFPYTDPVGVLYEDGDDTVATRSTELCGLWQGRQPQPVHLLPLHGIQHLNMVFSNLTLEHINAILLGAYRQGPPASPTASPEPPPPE

[2] = test system: monoclonal antibody AI-11; assay: Competition ELISA, AI-11 binding to AI96-111-coated wells; parameters: species or system mouse; details: FIG. 2, competitor from 1 mg/ml, serial 2-fold dilutions
Procedure: To determine the relative effectiveness of AI-11 binding to Apo AI synthetic polypeptides, a competition ELISA was performed with AI 96-111 as the test synthetic polypeptide in comparison to Apo AI-containing serum and purified Apo AI/HDL. Microtiter plates were coated with AI 96-111 as described hereinbefore. After the drying step of the assay described hereinbefore, 50 μl of a fluid sample (i.e., an Apo AI-containing fluid sample) or standard (i.e., an Apo AI polypeptide) to be assayed were admixed into the polypeptide AI96-111-coated well simultaneously with 50 μl of HRPO-conjugated AI-11 antibody to form an immunoreaction admixture. In the assay described herein, 3 competitors were tested for their ability to compete for binding of AI-11 to the AI 96-111 polypeptide coated over a range of dilutions. The polypeptide AI 96-111 was added in separate coated wells at a starting concentration of 1 mg/ml and diluted 2-fold serially 6 times down to a final concentration of 0.0156 mg/ml. Serum samples as described in Example 2 were added at a starting dilution of 1:10 and diluted 2-fold serially 6 times down to a final dilution of […]. Apo AI/HDL as described in Example 2 was added at a starting concentration of 1 mg/ml and diluted 2-fold 5 times down to a final concentration of 0.031 mg/ml. The plate was then incubated for 30 minutes at room temperature. […]

Row | Substance | immunoreactivity with monoclonal antibody AI-11 in direct binding ELISA [1] | immunoreactivity with MAB AI-4, competition of binding to Apo AI/HDL (MAB AI-4) | immunoreactivity with MAB AI-11, competition of binding to Apo AI/HDL (MAB AI-11) | further results
1 | AI100-105: peptide derived from Apo AI, residues 100-105 (YLDDFQ) | – | did not react | do not immunoreact | –
2 | Apo AI fragment residues 148-185: Apo AI fragment residues 148-185 (Sparrow et al.) (MRDRARAHVDALRTHLAPYSDELRQRLAARLEALKENG; UniProt P02647 172-209, looked up, fragment) | – | – | – | involvement in activation of LCAT and lipid binding (LCAT; Sparrow et al. 1980): involved in both activation of LCAT and lipid binding
3 | Apo AI residues 121-164: synthetic polypeptide corresponding to Apo AI residues 121-164 (Fukushima et al.) (PLRAELQEGARQKLHELQEKLSPLGEEMRDRARAHVDALRTHLA; UniProt P02647 145-188, looked up, fragment) | – | – | – | effectiveness relative to native Apo AI in the activation of cholesterol esterification (LCAT; Fukushima et al. 1980): 30%
4 | Apo AI/HDL: Apo AI when it is present on HDL particles, isolated from plasma [reference compound] | – | competitively inhibit | competitively inhibit | competition for binding of AI-11 to coated AI96-111 [2]: competitively inhibit; competition for binding of AI-11 to coated AI96-111 ([2]; listed as purified HDL): greater affinity
5 | KAKVQPYLDDXQKKWQEEMELYRQKVEPLRAE (KAKVQPYLDDFQKKWQEEMELYRQKVEPLRAE) [AI94-125] | specifically immunoreactive | better competitor; also recorded: competitively inhibit; also recorded: immunoreacts | inhibited; also recorded: immunoreact | –
6 | PYLDDXQKKWQEEMEL (PYLDDFQKKWQEEMEL) [AI99-114] | recognized by the antibody but with decreased specificity | partial reactivity; also recorded: immunoreacted | – | –
7 | PYLDDXQKKWQEEMELYRQKVEP (PYLDDFQKKWQEEMELYRQKVEP) [AI99-121] | – | nearly as well as Apo AI/HDL; also recorded: competitively inhibit; also recorded: immunoreacts | does not bind; also recorded: not a competitive inhibitor | –

Further lines, with some results ahead:

Row | immunoreactivity with monoclonal antibody AI-11 in direct binding ELISA [1] | immunoreactivity with MAB AI-4, competition of binding to Apo AI/HDL (MAB AI-4) | immunoreactivity with MAB AI-11, competition of binding to Apo AI/HDL (MAB AI-11) | Substance | further results
8 | not bound by the antibody | – | – | AI99-111: Apo AI polypeptide, residues 99-111 (PYLDDFQKKWQEE) | –
9 | – | did not react | – | AI101-111: peptide derived from Apo AI, residues 101-111 (LDDFQKKWQEE) | –
10 | – | partial reactivity | – | KAKVQPYLDDXQKKWQEEMEL (KAKVQPYLDDFQKKWQEEMEL) [AI94-114] | –
